Reference: patent US5179093A, “Quinoline-diones” (Schering Corporation, priority 1991, dated 1993)
Values after ≈ are worked out from the molar mass of the structure shown.

Legend:
HSV-2 (strain MS) = test: Transient expression of beta galactosidase in transfected HeLa cells superinfected with HSV-2 (HSV-β-GAL assay); type: cell-based; details: Human alphaherpesvirus 2, plasmid pON 245^ori-, moi=5 pfu/cell, 24 hours, read-out: ANTI-HSV ACTIVITY HSV-β-GAL ASSAY IC50
Description: HeLa and Vero cell cultures were maintained in Eagles Minimal Essential Medium (EMEM) which was supplemented with glutamine, penicillin, streptomycin and 10% fetal calf serum (10% EMEM). Stock cultures of HSV-2 (strain MS available from ATCC VR-540) were grown in and harvested from Vero cells. Viral stocks were titered in Vero cells according to established procedures.
Plasmid pON 245^ori- contains the promoter of the HSV-1 thymidine kinase (tk) gene located immediately 5' of the E. coli lac Z gene. In this arrangement, the tk promoter controls transcription from the bacterial gene in transient expression assays. Additionally, an SV40 polyadenylation signal is present at the 3' end of the lac Z gene to allow for the efficient translation of the mRNA in eucaryotic cells. The expression of beta galactosidase in a transient assay using pON 245^ori- is dependent upon superinfection of the transfected cells with HSV. […] For example see U.S. application Ser. No. 07/435,491 filed Sep. 5, 1989, the disclosure of which is incorporated herein by reference thereto.
HeLa cells were seeded into 96 well microtiter plates and allowed to grow to 80% confluency (approximately 35,000 cells/well). One half microgram of plasmid pON 245^ori- DNA was introduced into the cells of each well by the […] precipitation technique (Grahman and Van der Eb, 1973). Four to six hours later, the cells were rinsed with hank's Balanced Salt Solution (HBSS), overlaid with 10% EMEM and incubated at 37° C. At 24 hrs post-transfection, cells were rinsed, overlaid with 10% EMEM again and re-incubated at 37° C. At 48 hrs post-transfection, cells were rinsed and overlaid with either EMEM containing 2% fetal calf serum (2% EMEM), 2% EMEM containing HSV-2 (strain MS, Multiplicity of Infection [moi]=5 pfu/cell) or 2% EMEM containing HSV-2 and the appropriate concentration of Schering compound to be tested. Twenty-four hours later, the cells were harvested and assayed for beta galactosidase activity as described below.
All determinations of beta galactosidase activity were performed in 96 well microtiter plates. The intracellular level of beta galactosidase activity in each well was determined from cell lysates of the monolayer cultures. Aliquots were assayed by incubation in the presence of beta galactosidase substrate, 4-methylumbelliferyl-β-D-galactoside (MUG, 125 ug/ml, Sigma), for 2 hours. The generation of fluorescent product was quantified on a Microfluor microfluorimeter (Dynatech) after addition of 0.1M glycine, pH 10.3 (Spaete and Mocarski, 1985). The inhibitory activity of a compound was plotted versus the concentration and an IC50 value (the concentration of compound required to reduce beta glactosidase expression by 50%) was obtained for each compound tested.

[1] = Compound toxicity assay: inhibition of HeLa cell translation (^3 H-LEU assay); type: cell-based; details: human; HeLa cells, overnight (24 hours) treatment, tritiated leucine incorporation; read-out: CYTOTOXICITY ^3 H--LEU ASSAY IC50
Description: HeLa cells were treated with inhibitory compound for 24 hours, after which levels of translational activity were assayed.
For assay of translational activity, HeLa cultures were grown to 80% confluency in 96 well microtiter plates, treated with appropriate concentrations of compound in 2% EMEM during an overnight incubation at 37° C., then rinsed with HBSS and overlaid with […] of 2% EMEM containing 8 uCi of tritiated leucine (^3 H-LEU, 141 Ci/mMol, Amersham Corp., Arlington Heights Ill.). After 1 hr incubation at 36.5° C., the cells were rinsed twice with phosphate buffered saline (PBS) and lysed in 400 ul/well of 1×PBS, 0.5% sodium dodecyl sulphate (SDS). After a 10 minute incubation at 36.5° C., the contents of the well were transferred to a well in a Millititer HA microfiltration plate (Millipore Corp., Bedford, MA). The TCA insoluble proteins were precipitated onto the filter disc by a 10 minute fixation with 5% TCA, followed by filtration under vacuum and three 10 minute rinses with 95% ethanol. The filters were dried at room temperature, cut from the milltitier plate and transferred to scintillation vials. TCA precipitable counts were assayed in 5 ml of Scintisol (Isolab, Akron, Ohio). The inhibitory activity of a compound was plotted versus the concentration and an IC50 value (that concentration of the compound required to decrease cellular translational activity by 50%) was derived for each compound.

| SMILES | IC50 (HSV-2 (strain MS)) [µg/mL] | CC50 at 24 h [1] [µg/mL] |
| --- | --- | --- |
| C=CCNC=C1C(=O)Oc2ccccc2C1=O [EX. 34, E,Z-3-[Allylaminomethylene]-dihydrobenzo-[b]-pyran-2,4-dione] | 8 (≈ 34.9 µM) | 46 (≈ 201 µM) |
| CCCCCCN1C(=O)C(=CNCc2ccccc2)C(=O)c2ccccc21 [EX. 25, (E,Z)1-hexyl-3-benzyleminomethylene-quinolin-2,4(1H)-Dione] | < 3 | 37 (≈ 102 µM) |
| O=C1C(=CNCc2ccncc2)C(=O)N(Cc2ccccc2)c2ccc(Cl)cc21 [EX. 17, (E,Z1-Benzyl-3-[(4-Pyridylmethylamino)methylene-6-Chloro-Quinolin-2,4(1H)-Dione] | 4 (≈ 9.9 µM) | 17 (≈ 42.1 µM) |
| CCNC=C1C(=O)Oc2ncccc2C1=O [EX. 38, 3-(ethylaminomethylene)-2,4-dioxo 3,4-dihydro-2H-pyrido-[2,3-b]-pyran] | > 25 | – |
| O=C1C(=CNCc2ccccc2)C(=O)N(Cc2ccccc2)c2ccc(Cl)cc21 [EX. 16, (E,Z 1-Benzyl-3-Benzylaminomethylene-6-Chloro-Quinolin-2,4(1H)-Dione] | < 3 | 7 (≈ 17.4 µM) |
| O=C1C(=CNCc2ccccc2)C(=O)N(Cc2ccccc2)c2cc(Cl)ccc21 [EX. 18, (E,Z)1-Benzyl-3-Benzylaminomethylene-7-Chloro-Quinolin-2,4(1H)-Dione] | 6 (≈ 14.9 µM) | 10 (≈ 24.8 µM) |
| Cc1ccc2c(c1)C(=O)C(=CNCc1ccncc1)C(=O)N2Cc1ccccc1 [EX. 15, (E,Z)1-Benzyl-3-[4-Pyridylmethylamino)methylene]-6-Methyl-Quinolin-2,4(1H)-Dione] | 6 (≈ 15.6 µM) | 37 (≈ 96.5 µM) |
| CC(NCc1ccccc1)=C1C(=O)Oc2ncccc2C1=O [EX. 31, 3-[1-Benzylaminoethylidine]-2,4-dioxo-2,3-dihydro-4H-pyrido-[2,3-b]-pyran] | 11 (≈ 37.4 µM) | > 100 |
| O=C1C(=CNCc2cnc[nH]2)C(=O)N(Cc2ccccc2)c2ccccc21 [EX. 41, (E,Z)-1-benzyl-3-[(1H-5-imidazolylmethyl)aminomethylene]-quinolin-2,4(1H)dione] | 8 (≈ 22.3 µM) | 34 (≈ 94.9 µM) |
| Cc1cccc2c1N(Cc1ccccc1)C(=O)C(=CNCc1ccncc1)C2=O [EX. 21, (E,Z)1-Benzyl-3-[(4-Pyridylmethylamino)methylene]-8-Methyl-Quinolin-2,4(1H)-Dione] | < 3 | 29 (≈ 75.6 µM) |
| Cc1cccc(NC=C2C(=O)c3cccnc3N(c3ccccc3)C2=O)n1 [EX. 37, 1-Phenyl-E,Z-3-[(6-methyl-2-pyridylamino)methylene]-3,4-dihydro-2H-[1,8]-naphthyridine-2,4-dione] | 22 (≈ 61.7 µM) | 56 (≈ 157 µM) |
| CCCCCCN1C(=O)C(=CN[C@H]2C(O)O[C@H](CO)[C@@H](O)[C@@H]2O)C(=O)c2ccccc21 (some centres unmarked) [EX. 42, (E,Z)-1-hexyl-3-(D) glucosaminomethylene-quinolin-2,4(1H)dione] | 10 (≈ 23 µM) | 25 (≈ 57.5 µM) |
| O=C1C(=CNCc2ccncc2)C(=O)N(Cc2ccccc2)c2ccccc21 [EX. 24, (E,Z)1-Benzyl-3-[(4-Pyridylmethylamino)methylene]-Quinolin-2,4(1H)-Dione] | 10 (≈ 27.1 µM) | > 100 |
| O=C1C(=CNCc2ccccc2)C(=O)N(c2ccccc2)c2ccccc21 [EX. 27, (E,Z)1-Phenyl-3-Benzylaminomethylene-Quinolin-2,4(1H)-Dione] | 4 (≈ 11.3 µM) | 10 (≈ 28.2 µM) |
| Cc1cccc2c1N(Cc1ccccc1)C(=O)C(=CNCc1ccccc1)C2=O [EX. 20, (E,Z) 1-Benzyl-3-Benzylaminomethylene-8-Methyl-Quinolin-2,4(1H)-Dione] | 3 (≈ 7.84 µM) | 10 (≈ 26.1 µM) |
| CCCCCCN1C(=O)C(=CNCc2ccncc2)C(=O)c2ccccc21 [EX. 26, (E,Z)1Hexyl-3-[(4-Pyrigylmethylamino)methylene-Quinolin-2,4(1H)-Dione] | 4 (≈ 11 µM) | 43 (≈ 118 µM) |
| CN1C(=O)C(=CNCc2ccncc2)C(=O)c2ccccc21 [EX. 22, (E,Z)1-Methyl-3-[(4-Pyridylmethylamino)methylene]Quinolin-2,4(1H)-Dione] | < 3 | 100 (≈ 341 µM) |
| O=C1C(=CNCc2ccncc2)C(=O)N(Cc2ccccc2)c2ccsc21 [EX. 46] | 3 (≈ 7.99 µM) | 23 (≈ 61.3 µM) |
| CCNC=C1C(=O)c2ccccc2N(C)C1=O [EX. 44, (E,Z) 1-methyl-3-ethylaminomethylene-quinolin-2,4(1H)dione] | 14 (≈ 60.8 µM) | 43 (≈ 187 µM) |
| CCCCCCCN1C(=O)C(=CNCc2ccncc2)C(=O)c2ccccc21 [EX. 30, (E,Z)1-Heptyl-3-[(4-Pyridylmethylamino)methylene]-Quinolin-2,4(1H)-Dione] | 3 (≈ 7.95 µM) | 20 (≈ 53 µM) |
| CCCCCCCN1C(=O)C(=CNCc2ccccc2)C(=O)c2ccccc21 [EX. 29, (E,Z)1-Heptyl-3-Benzylaminomethylene-Quinolin-2,4(1H)-Dione] | 5 (≈ 13.3 µM) | 16 (≈ 42.5 µM) |
| O=C1C(=CNCc2ccccc2)C(=O)N(c2ccccc2)c2ncccc21 [EX. 36, 1-Phenyl-E,Z-3-[benzylaminomethylene]-3,4-dihydro-2H-[1,8]-naphthyridine-2,4-dione] | 22 (≈ 61.9 µM) | 42 (≈ 118 µM) |
| CCCCCCCN1C(=O)C(=CNC23CC4CC(CC(C4)C2)C3)C(=O)c2ccccc21 [EX. 40, (E,Z)-1-heptyl-3-[1-adamantylaminomethylene]-quinolin-2,4(1H)dione] | 5 (≈ 11.9 µM) | 33 (≈ 78.5 µM) |
| O=C1C(=CNCc2ccncc2)C(=O)N(Cc2ccccc2)c2cc(Cl)ccc21 [EX. 19, (E,Z)1-Benzyl-3-[(4-Pyridylmethylamino)methylene]7-Chloro-Quinolin-2,4(1H)-Dione] | 13 (≈ 32.2 µM) | 40 (≈ 99 µM) |
| CCCCCCCN1C(=O)C(=CNN2CCOCC2)C(=O)c2ccccc21 [EX. 39, (E,Z)-1-heptyl-3-[(4-morpholino)aminomethylene]-quinolin-2,4(1H)dione] | 4 (≈ 10.8 µM) | 29 (≈ 78.1 µM) |
| CN1C(=O)C(=CNCc2ccccc2)C(=O)c2ccccc21 [EX. 14, (E,Z) 1-Methyl-3-Benzylaminomethylene-Quinolin-2,4(1H)-Dione] | 9 (≈ 30.8 µM) | 27 (≈ 92.4 µM) |
| O=C1C(=CNCc2ccncc2)C(=O)N(c2ccccc2)c2ccccc21 [EX. 28, (E,Z)1-Phenyl-3-[(-Pyridylmethylamino)methylene]Quinolin-2,4(1H)-Dione] | 7 (≈ 19.7 µM) | 25 (≈ 70.3 µM) |
| CN(C)C=C1C(=O)c2cccnc2N(c2ccccc2)C1=O [EX. 32, 1-Phenyl-3-(dimethylaminomethylene)-3,4-dihydro-2H-[1,8]-naphthyridine-2,4-dione] | 18 (≈ 61.4 µM) | > 100 |
| COc1ccc(OCCCOCN2C(=O)C(=CNCc3ccncc3)C(=O)c3ccccc32)c(Cl)c1 [EX. 43, (E,Z) 1-[3(2-chloro-4-methoxyphenoxy)-propyloxymethyl]-3-(4-pyridylmethylamino)methylene-quinolin-2,4(1H)dione] | 10 (≈ 19.7 µM) | 30 (≈ 59.1 µM) |
| CCNC=C1C(=O)c2cccnc2N(c2ccccc2)C1=O [EX. 35, 1-Phenyl-E,Z-3-[ethylaminomethylene]-3,4-dihydro-2H-[1,8]-naphthyridine-2,4-dione] | 7 (≈ 23.9 µM) | > 50 |
